Data: patent publication US20250368651A1 (priority 2022, published 2025)

Assays:
RNA Seq10 UAAAGGAAGGU = test: FP binding assay, RNA Seq10; conditions: Seq 10 UAAAGGAAGGU; 0.5 μM SMN-C2
Experimental: (§1) All synthetic DNA and RNA oligomers were purchased from Integrated DNA Technologies and reconstituted in nuclease-free water (Invitrogen #AM9932) at 1 mM. The concentration of the oligonucleotides at ˜0.1 mM was calibrated with the A260 value measured by a NanoDrop ND-1000 (Thermo, Waltham, MA, USA) and the predicted extinction coefficient (http://www.oligoevaluator.com) using Lamber-Beer's Law. The risdiplam analogues (1 mM in DMSO) were diluted in 2× assay buffer (40 mM HEPES, 200 mM NaCl for RNA; 40 mM HEPES, 200 mM NaCl, 1 mM MgCl2 for DNA) to make a 1 μM 2× working solution.
(§2) A 1:2 dilution series (8 points) of each oligonucleotide was prepared in 20-30 μL water to desired concentrations (i.e., 1-128 μM). […] For fluorescence polarization measurement, 20 μL of the above 1× working solution was transferred into a 384-well, black, F-bottom microplates (Greiner Bio-One) in duplicates or triplicates. The plate was equilibrated at room temperature for 5 min before being read using a microplate reader (SYNERGY H1, BioTek; Excitation/Emission=360/460 nm) at 25° C. […] The mixture was then transferred into a microplate (20 μL each well) in duplicates for fluorescence polarization readout. The experimental data were analyzed using Prism 8 software (Graphpad Software, San Diego, CA, USA).

[1] = target: DNA Seq13 (UGAAGAAAGGU as deoxyribonucleotides); test: FP binding assay, DNA Seq13; conditions: Seq 13; 0.5 μM SMN-C2
Experimental: as §1, §2

RNA Seq4 […] = test: FP binding assay, RNA Seq4
Experimental: as §1
(§3) A 1:2 dilution series (8 points) of each oligonucleotide was prepared in 20-30 μL water to desired concentrations (i.e., 1-128 μM). 20-30 μL 2× working solution containing the 2× assay buffer and the small-molecule ligand was added to each oligonucleotide sample in 1:1 (v/v) and mixed by pipetting for 4 times. For fluorescence polarization measurement, 20 μL of the above 1× working solution was transferred into a 384-well, black, F-bottom microplates (Greiner Bio-One) in duplicates or triplicates. The plate was equilibrated at room temperature for 5 min before being read using a microplate reader (SYNERGY H1, BioTek; Excitation/Emission=360/460 nm) at 25° C. For compound SMN-C5, a competitive binding assay was employed to measure an apparent Kd. SMN-C5 was 1:2 serial diluted for 10 concentration points starting at 750 μM in DMSO. A mixture of SMN-C2 (0.5 μM) and DNA Seq6 (25 μM) in 1× assay buffer was prepared and incubated at room temperature for 10 minutes. 3 μL of SMN-C5 solution at each concentration was added to a 42 μL SMN-C2/DNA Seq6 mixture and incubated at room temperature for 10 minutes. The mixture was then transferred into a microplate (20 μL each well) in duplicates for fluorescence polarization readout. The experimental data were analyzed using Prism 8 software (Graphpad Software, San Diego, CA, USA).

DNA S1 […] = test: FP binding assay, 18-nt DNA S1; conditions: range = 95% CI
Experimental: as §1, §2

DNA S9 […] = test: FP binding assay, 18-nt DNA S9
Experimental: as §1, §2

RNA Seq8 UGAAGGAAGUU = test: FP binding assay, RNA Seq8; conditions: Seq 8 UGAAGGAAGUU; 0.5 μM SMN-C2
Experimental: as §1, §2

[2] = target: DNA Seq7 (UUAAGGAAGGU as deoxyribonucleotides); test: FP binding assay, DNA Seq7; conditions: Seq 7; 0.5 μM SMN-C2
Experimental: as §1, §2

RNA Seq13 UGAAGAAAGGU = test: FP binding assay, RNA Seq13; conditions: Seq 13 UGAAGAAAGGU; 0.5 μM SMN-C2
Experimental: as §1, §2

DNA S8 […] = test: FP binding assay, 18-nt DNA S8
Experimental: as §1, §2

DNA Seq6 = test: Isothermal titration calorimetry (ITC), DNA Seq6; assay type: binding; conditions: SMN-C2 250 μM into DNA Seq6 25 μM; MES buffer, 5% DMSO, 100 mM NaCl
Experimental: Excess amount of SMN-C2 was eluted at retention volume ˜21 mL. The figures are the representation of three independent experiments.
Isothermal calorimetric titrations were carried out on a Malvern Analytical MicroCal PEAQ-ITC at 25° C. The DNA (see above for the calibration procedure) and the SMN-C2 water solutions containing the desired amount of the materials were freeze-dried overnight (Labconco FreeZone 4.5 Liter Benchtop Freeze Dry System) and then re-suspended in appropriate volume of buffer containing 5% DMSO, 100 mM NaCl and 30 mM MES buffer at pH 6.0 (e.g., 350 μL for DNA Seq6, 80 μL for SMN-C2). […] The analysis was performed using the instrument's MicroCal PEAQ-ITC Analysis Software (Malvern Analytical). The ITC data was fit using the One Set of Sites mode to calculate the dissociate constant (Kd), binding stoichiometry, and the changes in enthalpy and Gibbs free energy. In differential power (DP) trace, the baseline was subtracted for better visualization, which has no impact on calculations.

in vitro = conditions: human
DNA S2 […] = test: FP binding assay, 18-nt DNA S2
Experimental: as §1, §2

DNA S23 […] = test: FP binding assay, 18-nt DNA S23
Experimental: as §1, §2

DNA S21 […] = test: FP binding assay, 18-nt DNA S21
Experimental: as §1, §2

DNA S7 […] = test: FP binding assay, 18-nt DNA S7
Experimental: as §1, §2

RNA Seq6 UGAAGGAAGGU = test: Fluorescence polarization (FP) binding assay, RNA Seq6
Experimental: as §1, §3

[3] = target: DNA Seq10 (UAAAGGAAGGU as deoxyribonucleotides); test: FP binding assay, DNA Seq10; conditions: Seq 10; 0.5 μM SMN-C2
Experimental: as §1, §2

DNA S27 d([…]) = test: FP binding assay, 10-nt DNA S27
Experimental: as §1, §2

DNA Seq17 TGAAGGAAGAT = test: FP binding assay, DNA Seq17; conditions: Seq 17 TGAAGGAAGAT; 0.5 μM SMN-C2
Experimental: as §1, §2

Which Kd (RNA Seq10 UAAAGGAAGGU) does the source give for `CCN1CCN(c2ccc3cc(-c4cn5cc(C)nc(C)c5n4)c(=O)oc3c2)C[C@@H]1C` [SMN-C2, (S)-3-(6,8-dimethylimidazo[1,2-a]pyrazin-2-yl)-7-(4-ethyl-3-methylpiperazin-1-yl)-2H-chromen-2-one] here?
Its Kd is > 100 µM.

And the Kd [1]?
Its Kd is > 100 µM.

And the Kd (RNA Seq4 […])?
Its Kd is 21.7 ± 4.3 µM.

What about the Kd (DNA S1 […]) of the same molecule?
Its Kd is 15.3 ± 0.6 µM.

And the Kd (DNA S9 […])?
Its Kd is 56.2 ± 13.9 µM.

And the Kd (RNA Seq8 UGAAGGAAGUU)?
Its Kd is > 100 µM.

What about the Kd [2] of the same molecule?
Its Kd is > 100 µM.

And the Kd (RNA Seq13 UGAAGAAAGGU)?
Its Kd is > 100 µM.

And the Kd (DNA S8 […])?
The Kd was 12.4 ± 0.4 µM.

What about the Kd (DNA Seq6) of the same molecule?
Its Kd is 4.8 µM.

What about the CC50 (in vitro) of the same molecule?
Its CC50 is > 30 µM.

And the Kd (DNA S2 […])?
Its Kd is 20.2 ± 1.7 µM.

What about the Kd (DNA S23 […]) of the same molecule?
The Kd was > 50 µM.

What about the Kd (DNA S21 […]) of the same molecule?
The Kd was > 50 µM.

What about the Kd (DNA S7 […]) of the same molecule?
The Kd was 17.3 ± 1.7 µM.

What about the Kd (RNA Seq6 UGAAGGAAGGU; Seq 6 UGAAGGAAGGU, 0.5 μM SMN-C2, range = 95% CI, read-out: RNA Kd) of the same molecule?
Its Kd is 17.5 ± 2.2 µM.

What about the “binding affinity (Kd) to RNA Seq6 relative to RNA Seq18, fold stronger” value (RNA Seq6 UGAAGGAAGGU; binding site 2 vs binding site 1) of the same molecule?
The value was 3.4 fold.

What about the Kd [3] of the same molecule?
Its Kd is > 100 µM.

What about the Kd (DNA S27 d([…])) of the same molecule?
Its Kd is 11.6 ± 1.7 µM.

What about the Kd (DNA Seq17 TGAAGGAAGAT) of the same molecule?
Its Kd is 56.4 ± 10.4 µM.
